Reference: patent US4401660A, “Ester derivatives of 5-O-mycaminosyl tylonolide and method of using same” (Eli Lilly and Company, priority 1981, dated 1983)
Where two headings read alike, the source gives them in different places.

Experiments:
[1] = tested on: Haemophilus influenzae Holt; assay: MIC, standard agar-dilution assay (Table II); assay type: cell-based; set-up: unit not given here; conditions: ampicillin-sensitive strain
Experimental: (§1) The MIC's in Table II were determined by standard agar-dilution assays. The MIC's in Table III were obtained using a conventional broth-dilution microtiter test.

[2] = tested on: Haemophilus influenzae R252; assay: MIC, standard agar-dilution assay (Table II); assay type: cell-based; set-up: unit not given here; conditions: Haemophilus influenzae R252, ampicillin-resistant strain
Experimental: as §1

[3] = tested on: Staphylococcus aureus S13E; assay: MIC, standard agar-dilution assay (Table II); assay type: cell-based; set-up: unit not given here
Experimental: as §1

[4] = tested on: Staphylococcus aureus V41; assay: MIC, standard agar-dilution assay (Table II); assay type: cell-based; set-up: unit not given here; conditions: Staphylococcus aureus V41, penicillin-resistant strain
Experimental: as §1

[5] = tested on: Staphylococcus aureus X1.1; assay: MIC, standard agar-dilution assay (Table II); assay type: cell-based; set-up: unit not given here
Experimental: as §1

[6] = tested on: Staphylococcus aureus X400; assay: MIC, standard agar-dilution assay (Table II); assay type: cell-based; set-up: unit not given here; conditions: Staphylococcus aureus X400, methicillin-resistant strain
Experimental: as §1

[7] = tested on: Staphylococcus epidermidis EPI1; assay: MIC, standard agar-dilution assay (Table II); assay type: cell-based; set-up: unit not given here
Experimental: as §1

[8] = tested on: Staphylococcus epidermidis EPI2; assay: MIC, standard agar-dilution assay (Table II); assay type: cell-based; set-up: unit not given here
Experimental: as §1

[9] = tested on: Streptococcus Group D 9960; assay: MIC, standard agar-dilution assay (Table II); assay type: cell-based; set-up: unit not given here
Experimental: as §1

[10] = tested on: Streptococcus Group D X66; assay: MIC, standard agar-dilution assay (Table II); assay type: cell-based; set-up: unit not given here
Experimental: as §1

[11] = tested on: Streptococcus pneumoniae Park I; assay: MIC, standard agar-dilution assay (Table II); assay type: cell-based; set-up: unit not given here
Experimental: as §1

[12] = tested on: Streptococcus pyogenes C203; assay: MIC, standard agar-dilution assay (Table II); assay type: cell-based; set-up: unit not given here
Experimental: as §1

Mycoplasma gallisepticum = assay: MIC, broth-dilution microtiter test (Table III); assay type: cell-based; set-up: unit not given here
Experimental: as §1

Mycoplasma hyorhinis = assay: MIC, broth-dilution microtiter test (Table III); assay type: cell-based; set-up: unit not given here
Experimental: as §1

Mycoplasma synoviae = assay: MIC, broth-dilution microtiter test (Table III); assay type: cell-based; set-up: unit not given here
Experimental: as §1

[13] = tested on: Pasteurella haemolytica 22C; assay: MIC, broth-dilution microtiter test (Table III); assay type: cell-based; set-up: unit not given here
Experimental: as §1

[14] = tested on: Pasteurella haemolytica 23C; assay: MIC, broth-dilution microtiter test (Table III); assay type: cell-based; set-up: unit not given here
Experimental: as §1

[15] = tested on: Pasteurella haemolytica 41D; assay: MIC, broth-dilution microtiter test (Table III); assay type: cell-based; set-up: unit not given here
Experimental: as §1

[16] = tested on: Pasteurella multocida 17E; assay: MIC, broth-dilution microtiter test (Table III); assay type: cell-based; set-up: unit not given here; conditions: bovine isolate
Experimental: as §1

[17] = tested on: Pasteurella multocida 22A; assay: MIC, broth-dilution microtiter test (Table III); assay type: cell-based; set-up: unit not given here
Experimental: as §1

[18] = tested on: Pasteurella multocida 40G; assay: MIC, broth-dilution microtiter test (Table III); assay type: cell-based; set-up: unit not given here
Experimental: as §1

[19] = tested on: Pasteurella multocida 60A; assay: MIC, broth-dilution microtiter test (Table III); assay type: cell-based; set-up: unit not given here; conditions: avian isolate
Experimental: as §1

[20] = tested on: Pasteurella multocida 68C; assay: MIC, broth-dilution microtiter test (Table III); assay type: cell-based; set-up: unit not given here
Experimental: as §1

Staphylococcus aureus = assay: MIC, broth-dilution microtiter test (Table III); assay type: cell-based; set-up: unit not given here
Experimental: as §1

Streptococcus sp. 80 = assay: MIC, broth-dilution microtiter test (Table III); assay type: cell-based; set-up: unit not given here
Experimental: as §1

[21] = tested on: Streptococcus pyogenes C203; assay: ED50 in mice with experimental infections (Table IV); assay type: in vivo; conditions: doses given 1 and 4 hours postinfection; for ED50: Streptococcus pyogenes
Outline: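 Read-out is ED50, the mg/kg dose protecting half of infected mice; values refer to each of two doses, given 1 and 4 hours after infection.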

Pasteurella multocida = assay: Treatment of Pasteurella infections in chicks (Table V); assay type: in vivo, one-day-old chicks; conditions: 30 mg/kg by subcutaneous injection one and four hours post challenge; for mortality at 30 mg/kg: Pasteurella multocida, sc, 4 h, read-out: Deaths in Treated Chicks/Number Treated (converted)
Outline: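 Dosing was 30 mg/kg by subcutaneous injection, one and four hours after challenge. Day-old chicks received 0.1 ml of a 10^-3 dilution of a 20-hour tryptose broth culture of avian P. multocida subcutaneously. Nonmedicated infected chicks served as controls, ten per group.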

[22] = C203, oral, read-out: ED50, Oral
[23] = C203, sc, subcutaneous, read-out: ED50, Subcutaneous

Compound | minimal inhibitory concentration (MIC) [1] | minimal inhibitory concentration (MIC) [2] | minimal inhibitory concentration (MIC) [3] | minimal inhibitory concentration (MIC) [4] | minimal inhibitory concentration (MIC) [5] | minimal inhibitory concentration (MIC) [6] | minimal inhibitory concentration (MIC) [7] | minimal inhibitory concentration (MIC) [8] | minimal inhibitory concentration (MIC) [9] | minimal inhibitory concentration (MIC) [10] | minimal inhibitory concentration (MIC) [11] | minimal inhibitory concentration (MIC) [12] | minimal inhibitory concentration (MIC) (Mycoplasma gallisepticum) | minimal inhibitory concentration (MIC) (Mycoplasma hyorhinis) | minimal inhibitory concentration (MIC) (Mycoplasma synoviae) | minimal inhibitory concentration (MIC) [13] | minimal inhibitory concentration (MIC) [14] | minimal inhibitory concentration (MIC) [15] | minimal inhibitory concentration (MIC) [16] | minimal inhibitory concentration (MIC) [17] | other results
CCC1OC(=O)CC(O)C(C)C(OC2OC(C)C(O)C(N(C)C)C2O)C(CC=O)CC(C)C(=O)C=CC(C)=CC1COS(=O)(=O)c1ccc(C)cc1 (stereo not drawn) [Compound 46] | 1 | 1 | 0.25 | 0.25 | 0.25 | 0.25 | 0.25 | 0.25 | 0.25 | 0.25 | 0.03 | 0.125 | 0.05 | 0.78 | 0.097 | 3.12 | 3.12 | 3.12 | 3.12 | 6.25 | minimal inhibitory concentration (MIC) [18]: 6.25; minimal inhibitory concentration (MIC) [19]: 1.56; minimal inhibitory concentration (MIC) [20]: 3.12; minimal inhibitory concentration (MIC) (Staphylococcus aureus): 0.195; minimal inhibitory concentration (MIC) (Streptococcus sp. 80): 0.097; ED50 [21, 22]: 146 mg/kg; ED50 [21, 23]: 15 mg/kg; mortality at 30 mg/kg (Pasteurella multocida): 80%
CCC1OC(=O)CC(O)C(C)C(OC2OC(C)C(OC(=O)CC(C)C)C(N(C)C)C2OC(C)=O)C(CC=O)CC(C)C(=O)C=CC(C)=CC1CO (stereo not drawn) [Compound 49, 2'-O-Acetyl-4'-O-isovaleryl-OMT] | 1 | 1 | 2 | 2 | 1 | 4 | 1 | 2 | 1 | 1 | 0.125 | 0.25 | 1.56 | 6.25 | 0.78 | 12.5 | 12.5 | 12.5 | 3.12 | 6.25 | minimal inhibitory concentration (MIC) [18]: 3.12; minimal inhibitory concentration (MIC) [19]: 3.12; minimal inhibitory concentration (MIC) [20]: 25; minimal inhibitory concentration (MIC) (Staphylococcus aureus): 3.12; minimal inhibitory concentration (MIC) (Streptococcus sp. 80): 0.39; ED50 [21, 22]: > 100 mg/kg; ED50 [21, 23]: > 30 mg/kg; mortality at 30 mg/kg (Pasteurella multocida): 100%
CCC1OC(=O)CC(O)C(C)C(OC2OC(C)C(O)C(N(C)C)C2O)C(CC=O)CC(C)C(=O)C=CC(C)=CC1COC(=O)C(N)c1ccccc1 (stereo not drawn) [Compound 57] | 2 | 2 | 0.5 | 0.5 | 0.5 | 1 | 0.5 | 1 | 0.5 | 0.5 | 0.03 | 0.125 | 0.195 | 6.25 | 0.39 | 6.25 | 6.25 | 6.25 | 6.25 | 3.12 | minimal inhibitory concentration (MIC) [18]: 3.12; minimal inhibitory concentration (MIC) [19]: 3.12; minimal inhibitory concentration (MIC) [20]: 3.12; minimal inhibitory concentration (MIC) (Staphylococcus aureus): 3.12; minimal inhibitory concentration (MIC) (Streptococcus sp. 80): 0.39; ED50, Oral ([21]; oral): 91 mg/kg × 2; ED50, Subcutaneous ([21]; subcutaneous): 2.6 mg/kg × 2; Deaths in Treated Chicks/Number Treated (Pasteurella multocida): 0/10
